Data taken from the METLIN SMRT retention time set (Domingo-Almenara et al. 2019).

Assay: gradient 5% acetonitrile 3 min, to 50% in 2 min, to 85% in 15 min, held 3 min, 100 µL/min
Details: column: Zorbax Extend-C18 2.1 x 50 mm; eluents: water / acetonitrile, 0.1% formic acid
In short: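 Retention times come from adduct peaks that were picked computationally and then checked by hand. The standards, pure and pooled in mixtures of ~100 molecules, were run on a Zorbax Extend-C18 column (2.1 × 50 mm, 1.8 μm) at 100 μL/min with water and acetonitrile, each with 0.1% formic acid. Detection was by quadrupole time-of-flight mass spectrometry in positive and negative ionization mode, with a dead volume of 40 μL and a dwell volume of 900 μL.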

First: CC(=O)N1CCC(C(=O)NCc2ccc(-c3nc(-c4ccc(F)cc4)no3)s2)CC1
Second: Nc1cc(C2CCN(C(=O)NCc3ccc(F)cc3)CC2)no1
The RP-LC retention time of the first is higher: 786 s for the first, 671 s for the second.

Compared with CCN1C(=O)c2cccnc2Sc2cc(NC(=O)CCc3cccc(OC)c3)ccc21, CCn1c(CCC(=O)NCc2ccccc2OC)nc2ccc(C)cc2c1=O is lower in RP-LC retention time: 855 s for the first, 817 s for the second.

Going from CSc1cccc2sc(NCc3cccnc3)nc12 to COC(=O)c1cc2ccsc2n1Cc1cccc(C#N)c1, the RP-LC retention time rises from 590 s to 1010 s.

Going from CCC(=O)NCc1nc2c(n1CC)CN(C(=O)c1ccc(Cl)cc1)CC2 to CCc1cc(=O)n(CC(=O)NCc2ccc(F)cc2F)c(N)n1, the RP-LC retention time rises from 529 s to 812 s.

First: CCS(=O)(=O)N1CCCc2cc(C(=O)Nc3ccc(Br)cc3)ccc21
Second: CCC(=O)Oc1ccc(NC(=O)c2ccc(S(=O)(=O)N3CCCC3)cc2)cc1
The RP-LC retention time of the first is higher: 1030 s for the first, 884 s for the second.

Going from CCC(=O)Nc1ccc(C2(C(=O)N3CCCCCC3)CCC2)cc1 to CCc1ccccc1NC(=O)C1CCCN(S(=O)(=O)c2c[nH]c(C(=O)N3CCCCCC3)c2)C1 (configuration not stated), the RP-LC retention time rises from 801 s to 911 s.

Compared with Cn1c(SCC(=O)Nc2ncn[nH]2)nc2ccsc2c1=O, O=C(CCn1c(N2CCCCC2)nc2ccsc2c1=O)N1CCN(c2ccccn2)CC1 is higher in RP-LC retention time: 583 s for the first, 629 s for the second.

Going from CCOC(=O)c1noc2ncnc(N3CCN(c4cccc(Cl)c4)CC3)c12 to Cc1noc2ncnc(N3CCCC(C(=O)N4CCCc5ccccc54)C3)c12 (configuration not stated), the RP-LC retention time falls from 1150 s to 878 s.

First: CCN(CC)C(=O)c1ccc(-c2nc3cc(NS(=O)(=O)c4ccccc4Cl)ccc3n2C)cc1
Second: CCOc1ccc(C(=O)NCc2c(-c3ccccc3)nc3sc(CC)nn23)cc1
The RP-LC retention time of the first is lower: 695 s for the first, 943 s for the second.

Going from O=C1/C(=C\c2ccc(O)c(O)c2)Oc2c1ccc(O[C@@H]1O[C@H](CO)[C@@H](O)[C@H](O)[C@H]1O)c2O to CCOCCCNC(=O)c1cc2c(n(-c3ccc(C(C)C)cc3)c1=O)CCCC2=O, the RP-LC retention time rises from 638 s to 952 s.

Going from Cc1sc(-n2c(C)c3c(C)nnc(C)c3c2C)nc1-c1ccc(Br)cc1 to CCOC(=O)Cc1c(C)nc2c(-c3ccccc3)c(C)nn2c1C, the RP-LC retention time rises from 782 s to 1080 s.

Compared with Cc1nc(CC(=O)NC(C)c2ccc(F)cc2)sc1C(=O)NC1CC1 (configuration not stated), COc1c(C(=O)NC2CCCC2)sc2cccc(F)c12 is higher in RP-LC retention time: 683 s for the first, 1100 s for the second.

First: Cc1cccc(N2C(=O)CN(Cc3ccccc3C)[C@H]3CS(=O)(=O)C[C@H]32)c1
Second: Cc1cccc(-c2nc(-c3nnn(-c4ccccc4)c3C)no2)c1
The RP-LC retention time of the first is lower: 872 s for the first, 1140 s for the second.

Compared with Cc1cc(=O)n(CC(=O)Nc2ccc(C(F)(F)F)cc2)c(N2CCOCC2)n1, O=C(Cn1nc2n(c1=O)CCCCC2)Nc1ccc(F)c(Cl)c1 is lower in RP-LC retention time: 759 s for the first, 729 s for the second.

Going from Cc1noc(C)c1C(=O)N1CC(c2nc(CCOC3CCCC3)no2)C1 to CN1CCCC1c1nc(C2CN(S(=O)(=O)Cc3ccccc3F)C2)no1 (configuration not stated), the RP-LC retention time falls from 788 s to 626 s.

Going from CCn1cc(CNC(=O)c2cc(-c3ccc4c(c3)OCO4)nc3ccccc23)c(C)n1 to Cc1ccc(-c2nc(C)cc(OCC(=O)NCc3ccc4c(c3)OCO4)n2)cc1, the RP-LC retention time rises from 818 s to 919 s.

Compared with CC1CCCN(CCCNC(=O)c2cc(S(=O)(=O)N3CCCCC3)ccc2Cl)C1 (configuration not stated), Cc1cccnc1NC(=O)C1CCCN(c2ccc3cc(S(=O)(=O)N4CCCC4)ccc3n2)C1 (configuration not stated) is lower in RP-LC retention time: 661 s for the first, 624 s for the second.

Going from O=C(NCc1nc(-c2ccccc2)no1)c1cc(C2CC2)on1 to COCCNS(=O)(=O)c1cccc(-c2nc(-c3ccccc3)no2)c1, the RP-LC retention time rises from 822 s to 972 s.

Compared with Cc1nc(CSc2ncnc3sc4c(c23)CCC4)cs1, Cc1nc(-c2cccnc2)nc2c1CCC(=O)N2CC1CCCO1 (configuration not stated) is lower in RP-LC retention time: 1040 s for the first, 626 s for the second.

Compared with COC(=O)C1=CN(c2ccccc2OC)c2cc(F)ccc2S1(=O)=O, COc1cc(NC(=O)C(C)Oc2ccc(=O)n(-c3ccc(F)cc3)n2)cc(OC)c1OC (configuration not stated) is lower in RP-LC retention time: 860 s for the first, 719 s for the second.

Going from O=C(NC(c1nnc(-c2ccccc2)o1)c1ccccc1Cl)c1ccco1 (configuration not stated) to O=C(CCc1ccccc1)N1CCCC1c1nc(-c2ccccc2Cl)no1 (configuration not stated), the RP-LC retention time rises from 911 s to 1040 s.

Going from CCc1cccc(Nc2c(C(=O)N3CCCCC3C)cnc3nc(C)ccc23)c1 (configuration not stated) to CCc1noc(-c2ccc(-n3ncc(C(=O)N4CCOCC4)c3C)nc2)n1, the RP-LC retention time rises from 677 s to 752 s.

Compared with CC(C)(C)c1csc(-c2csc(S(=O)(=O)NCc3ccc(F)c(Cl)c3)c2)n1, CN1CCCn2cc(S(=O)(=O)NCc3ccccc3Cl)cc2C1=O is lower in RP-LC retention time: 1280 s for the first, 704 s for the second.

Going from CC1CN(C(=O)Cn2cc(SCC(=O)NCC3CCCO3)c3ccccc32)CC(C)O1 (configuration not stated) to CCCn1c2ccccc2c2cnn(CC(=O)NCCN3CC(C)CC(C)C3)c(=O)c21 (configuration not stated), the RP-LC retention time falls from 723 s to 701 s.

Compared with CCCNC(=O)CCc1c(-c2ccc(Cl)cc2)nc2ccccn12, Cc1ccc(NC(=O)NC2CCN(c3ccccc3)C2=O)cc1Cl (configuration not stated) is higher in RP-LC retention time: 625 s for the first, 915 s for the second.

Going from NS(=O)(=O)C#Cc1ccccc1 to Cc1nc(-c2ccccc2)nn1C1CCN(S(=O)(=O)c2cccnc2)C1 (configuration not stated), the RP-LC retention time falls from 729 s to 716 s.

First: Fc1ccc(F)c(-c2nc(-c3cccc(-c4ccn[nH]4)c3)no2)c1
Second: O=c1c2ccccc2c(-c2nc(-c3ccncc3)no2)cn1-c1ccccc1
The RP-LC retention time of the first is lower: 966 s for the first, 1050 s for the second.

First: COc1cccc(Cn2nc3ccc(S(=O)(=O)N4CCCC4)cn3c2=O)c1
Second: COc1ccc(CCNC(=O)C2CCCN(S(=O)(=O)c3ccc(OC)c(Cl)c3)C2)cc1 (configuration not stated)
The RP-LC retention time of the first is lower: 814 s for the first, 938 s for the second.

First: COc1ccc(-c2noc(C3CC(=O)N(c4cc(Cl)ccc4OC)C3)n2)cc1OC (configuration not stated)
Second: CCOc1ccccc1-c1nc(Cc2nc(-c3ccc(OC)cc3)oc2C)no1
The RP-LC retention time of the first is lower: 884 s for the first, 1160 s for the second.

Going from CC(C)c1nc(NCc2ccc(F)cc2F)ncc1C(=O)O to O=c1[nH]c2ccc(NCc3c(F)cccc3Cl)cc2[nH]1, the RP-LC retention time falls from 875 s to 636 s.

First: CCC(CC)N1CCN(C(=O)c2nc(N3CCSCC3)c3cn(C)nc3n2)CC1
Second: CCC1CN2C=NC(N3CCN(C(=O)Nc4ccc(OC)cc4C)CC3)=CC2=N1 (configuration not stated)
The RP-LC retention time of the first is lower: 574 s for the first, 612 s for the second.

Going from O=C(CS(=O)Cc1cnn(-c2ccccc2)c1-n1cccc1)N1CCN(C2CCCCC2)CC1 (configuration not stated) to CC(=O)c1ccc(N2CCN(C(=O)c3ccc(-n4cccn4)nn3)CC2)cc1, the RP-LC retention time rises from 643 s to 695 s.

Compared with Cc1nn(C)c(C)c1CNC(=O)CN1C(=O)C2CCCCN2c2ccc(C(=O)N3CCCC3)cc21 (configuration not stated), CCN1C(=O)C2(CCN(C(=O)c3cc(C)n(C)n3)CC2)c2ccccc21 is higher in RP-LC retention time: 654 s for the first, 750 s for the second.

With N#CC1=C(SCC(=O)NCc2ccccc2)NC(=O)CC1c1ccco1 (configuration not stated) the RP-LC retention time was 770 s.
